In patent publication US8361711B2, “Tools and methods useful in characterising the immunotoxic activity of xenobiotic substances” (National Institute of Public Health and the Environment, …, priority 2004, dated 2013):

Assays:
[1] = tested on: IL-2 fused to a stabile form of EGFP; experiment: Clones with IL-2 regulatory elements fused to a stabile form of EGFP; assay type: cell-based, mouse; conditions: all tested concentrations
Protocol: (§1) Samples were analyzed in an EPICS® XL-MCL Coulter flow cytometer with Expo v.2 Analysis Software/Expo32 Analysis Software (Applied Cytometry Systems, Sheffield, UK). or any other suitable flow cytometer. Viable and dead cells were gated separately and results were determined based on fluorescence associated with viable cells only. Regions were set in control cells and the same regions were used in induction controls and chemically challenged cells. Percent positive cells and fluorescence intensity were noted and used in further calculations.
(§2) Index numbers were calculated from the median fluorescence intensity of viable cells. Cells incubated in the absence or presence of ionomycin/PMA were analysed separately. Each clone incubated with or without ionomycin/PMA, but without further chemicals/compounds was defined as index number=1, and the index numbers for the other exposures were calculated from this.
(§3) One way ANOVAs (one way analysis of variance) were performed. In cases where normality failed, we used Kruskal-Wallis One Way Analysis of Variance on Ranks. If the differences between groups were statistically significant (p<0.05), we continued with tests for multiple comparisons. In normally distributed data we used Bonferroni t-test and multiple comparisons versus the control. The control was chosen to be the sample incubated in the presence or absence of ionomycin/PMA only. When normality failed we used […] for multiple comparisons versus the control.

[2] = tested on: IFN-γ fused to a stabile form of EGFP; experiment: Clones with IFN-γ regulatory elements fused to a stabile form of EGFP; assay type: cell-based, mouse; conditions: all tested concentrations
Protocol: as §1, §2, §3

[3] = tested on: cell lines developed in the project
Protocol: The basic cytotoxicty assay employed was LDH release. Several cytotoxicity assays were performed independently in two laboratories. […] In addition, the cytotoxicity associated with the solvent was also tested to eliminate the possibility of interference in the test outcome.
Cells were plated in 24 well microtiter plates at a density of 0.5×10^6 cells/mL and with a final volume of 1.5 mL/well. Two controls were included for each cell line, in each experiment.

CC1(C)S[C@@H]2[C@H](NC(=O)Cc3ccccc3)C(=O)N2[C@H]1C(=O)[O-].[Na+] [penicillin G, Penicillin G (Benzylpenicillin) sodium salt]
IL-2 expression, stabile EGFP clone ([1]; absence of ionomycin/PMA): failed to alter expression | IL-2 expression, stabile EGFP clone ([1]; presence of ionomycin/PMA): failed to alter expression | IFN-γ expression, stabile EGFP clone ([2]; absence of ionomycin/PMA): failed to alter expression | IFN-γ expression, stabile EGFP clone ([2]; presence of ionomycin/PMA): failed to alter expression | toxicity (LDH-assay) [3]: did not find penicillin G to be toxic
